In the supplement of paper PMC10307832:

Legend:
Test in all cases: relative viability (nuclei count vs DMSO), 5 days (fraction); higher = more cells survive
SK-MES-1 = test system: SK-MES-1
Method in brief: (§1)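 Lung cancer cell lines were seeded in 1536-well plates and dosed by pin tool the next day, with either a single drug or a fixed anchor-drug dose combined with five library-drug doses (not always all listed) spaced in √10 steps. Five days later, one step fixed the cells and stained their nuclei (final 0.05% Triton X-100, 1% formaldehyde, 1 ug/ml Hoechst), and nuclei were counted on 4× images. Relative viability is the nuclei count in treated wells divided by the count in vehicle wells, and each value is the median of duplicate plates.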

COR-L23 = test system: COR-L23
Method in brief: as §1

SW 1573 = test system: SW 1573
Method in brief: as §1

SK-LU-1 = test system: SK-LU-1
Method in brief: as §1

NCI-H3122 = test system: NCI-H3122
Method in brief: as §1

NCI-H1793 = test system: NCI-H1793
Method in brief: as §1

ABC-1 = test system: ABC-1
Method in brief: as §1

HOP-62 = test system: HOP-62
Method in brief: as §1

NCI-H1993 = test system: NCI-H1993
Method in brief: as §1

SW 900 = test system: SW 900
Method in brief: as §1

LK-2 = test system: LK-2
Method in brief: as §1

NCI-H2170 = test system: NCI-H2170
Method in brief: as §1

NCI-H2009 = test system: NCI-H2009
Method in brief: as §1

PC-3 [JPC-3] = test system: PC-3 [JPC-3]
Method in brief: as §1

NCI-H1792 = test system: NCI-H1792
Method in brief: as §1

A-427 = test system: A-427
Method in brief: as §1

NCI-H2228 = test system: NCI-H2228
Method in brief: as §1

LXF-289 = test system: LXF-289
Method in brief: as §1

HARA = test system: HARA
Method in brief: as §1

NCI-H596 = test system: NCI-H596
Method in brief: as §1

NCI-H727 = test system: NCI-H727
Method in brief: as §1

NCI-H1944 = test system: NCI-H1944
Method in brief: as §1

EMC-BAC-2 = test system: EMC-BAC-2
Method in brief: as §1

C=C1C(=O)O[C@@H](CCCCCCCC)[C@@H]1C(=O)O [C-75] + N=C(N)NC(=N)NCCc1ccccc1 [Phenformin] (partner 250 µM)
relative viability (SK-MES-1; first compound 0.08 µM): 0.652 | relative viability (SK-MES-1; first compound 0.253 µM): 0.697 | relative viability (SK-MES-1; first compound 0.8 µM): 0.636 | relative viability (SK-MES-1; first compound 2.53 µM): 0.658 | relative viability (SK-MES-1; first compound 8 µM): 0.702 | relative viability (COR-L23; first compound 0.08 µM): 0.44 | relative viability (COR-L23; first compound 0.253 µM): 0.386 | relative viability (COR-L23; first compound 0.8 µM): 0.41 | relative viability (COR-L23; first compound 2.53 µM): 0.42 | relative viability (COR-L23; first compound 8 µM): 0.421 | relative viability (SW 1573; first compound 0.08 µM): 0.462 | relative viability (SW 1573; first compound 0.253 µM): 0.351 | relative viability (SW 1573; first compound 0.8 µM): 0.376 | relative viability (SW 1573; first compound 2.53 µM): 0.381 | relative viability (SW 1573; first compound 8 µM): 0.244 | relative viability (SK-LU-1; first compound 0.08 µM): 0.52 | relative viability (SK-LU-1; first compound 0.253 µM): 0.524 | relative viability (SK-LU-1; first compound 0.8 µM): 0.515 | relative viability (SK-LU-1; first compound 2.53 µM): 0.425 | relative viability (SK-LU-1; first compound 8 µM): 0.423 | relative viability (NCI-H3122; first compound 0.08 µM): 0.405 | relative viability (NCI-H3122; first compound 0.253 µM): 0.406 | relative viability (NCI-H3122; first compound 0.8 µM): 0.384 | relative viability (NCI-H3122; first compound 8 µM): 0.408 | relative viability (NCI-H1793; first compound 0.08 µM): 0.365 | relative viability (NCI-H1793; first compound 0.253 µM): 0.362 | relative viability (NCI-H1793; first compound 0.8 µM): 0.287 | relative viability (NCI-H1793; first compound 2.53 µM): 0.29 | relative viability (NCI-H1793; first compound 8 µM): 0.486 | relative viability (ABC-1; first compound 0.08 µM): 0.209 | relative viability (ABC-1; first compound 0.253 µM): 0.289 | relative viability (ABC-1; first compound 0.8 µM): 0.231 | relative viability (ABC-1; first compound 2.53 µM): 0.19 | relative viability (ABC-1; first compound 8 µM): 0.199 | relative viability (HOP-62; first compound 0.08 µM): 0.691 | relative viability (HOP-62; first compound 0.253 µM): 0.718 | relative viability (HOP-62; first compound 0.8 µM): 0.647 | relative viability (HOP-62; first compound 2.53 µM): 0.616 | relative viability (HOP-62; first compound 8 µM): 0.601 | relative viability (NCI-H1993; first compound 0.08 µM): 0.528 | relative viability (NCI-H1993; first compound 0.253 µM): 0.574 | relative viability (NCI-H1993; first compound 0.8 µM): 0.476 | relative viability (NCI-H1993; first compound 2.53 µM): 0.46 | relative viability (NCI-H1993; first compound 8 µM): 0.506 | relative viability (SW 900; first compound 0.08 µM): 0.642 | relative viability (SW 900; first compound 0.253 µM): 0.58 | relative viability (SW 900; first compound 0.8 µM): 0.513 | relative viability (SW 900; first compound 2.53 µM): 0.535 | relative viability (SW 900; first compound 8 µM): 0.495 | relative viability (LK-2; first compound 0.08 µM): 0.519 | relative viability (LK-2; first compound 0.253 µM): 0.537 | relative viability (LK-2; first compound 0.8 µM): 0.484 | relative viability (LK-2; first compound 2.53 µM): 0.226 | relative viability (LK-2; first compound 8 µM): 0.273 | relative viability (NCI-H2170; first compound 0.08 µM): 0.469 | relative viability (NCI-H2170; first compound 0.253 µM): 0.453 | relative viability (NCI-H2170; first compound 0.8 µM): 0.419 | relative viability (NCI-H2170; first compound 2.53 µM): 0.404 | relative viability (NCI-H2170; first compound 8 µM): 0.481 | relative viability (NCI-H2009; first compound 0.08 µM): 0.487 | relative viability (NCI-H2009; first compound 0.253 µM): 0.534 | relative viability (NCI-H2009; first compound 0.8 µM): 0.448 | relative viability (NCI-H2009; first compound 2.53 µM): 0.427 | relative viability (NCI-H2009; first compound 8 µM): 0.422 | relative viability (PC-3 [JPC-3]; first compound 0.08 µM): 0.457 | relative viability (PC-3 [JPC-3]; first compound 0.253 µM): 0.468 | relative viability (PC-3 [JPC-3]; first compound 0.8 µM): 0.47 | relative viability (PC-3 [JPC-3]; first compound 2.53 µM): 0.48 | relative viability (PC-3 [JPC-3]; first compound 8 µM): 0.503 | relative viability (NCI-H1792; first compound 0.08 µM): 0.236 | relative viability (NCI-H1792; first compound 0.253 µM): 0.216 | relative viability (NCI-H1792; first compound 2.53 µM): 0.113 | relative viability (NCI-H1792; first compound 8 µM): 0.206 | relative viability (A-427; first compound 0.08 µM): 0.361 | relative viability (A-427; first compound 0.253 µM): 0.342 | relative viability (A-427; first compound 0.8 µM): 0.33 | relative viability (A-427; first compound 2.53 µM): 0.284 | relative viability (A-427; first compound 8 µM): 0.303 | relative viability (NCI-H2228; first compound 0.08 µM): 0.294 | relative viability (NCI-H2228; first compound 0.253 µM): 0.304 | relative viability (NCI-H2228; first compound 0.8 µM): 0.33 | relative viability (NCI-H2228; first compound 2.53 µM): 0.244 | relative viability (NCI-H2228; first compound 8 µM): 0.277 | relative viability (LXF-289; first compound 0.08 µM): 0.504 | relative viability (LXF-289; first compound 0.253 µM): 0.543 | relative viability (LXF-289; first compound 0.8 µM): 0.514 | relative viability (LXF-289; first compound 2.53 µM): 0.452 | relative viability (LXF-289; first compound 8 µM): 0.507 | relative viability (HARA; first compound 0.08 µM): 0.46 | relative viability (HARA; first compound 0.253 µM): 0.487 | relative viability (HARA; first compound 0.8 µM): 0.342 | relative viability (HARA; first compound 2.53 µM): 0.306 | relative viability (HARA; first compound 8 µM): 0.434 | relative viability (NCI-H596; first compound 0.08 µM): 0.891 | relative viability (NCI-H596; first compound 0.253 µM): 0.766 | relative viability (NCI-H596; first compound 0.8 µM): 0.846 | relative viability (NCI-H596; first compound 2.53 µM): 0.513 | relative viability (NCI-H596; first compound 8 µM): 0.717 | relative viability (NCI-H727; first compound 0.08 µM): 0.62 | relative viability (NCI-H727; first compound 0.253 µM): 0.879 | relative viability (NCI-H727; first compound 0.8 µM): 0.537 | relative viability (NCI-H727; first compound 8 µM): 0.65 | relative viability (NCI-H1944; first compound 0.08 µM): 0.21 | relative viability (NCI-H1944; first compound 0.253 µM): 0.163 | relative viability (NCI-H1944; first compound 0.8 µM): 0.179 | relative viability (NCI-H1944; first compound 8 µM): 0.187 | relative viability (EMC-BAC-2; first compound 0.08 µM): 0.58 | relative viability (EMC-BAC-2; first compound 0.253 µM): 0.478 | relative viability (EMC-BAC-2; first compound 0.8 µM): 0.48 | relative viability (EMC-BAC-2; first compound 2.53 µM): 0.42 | relative viability (EMC-BAC-2; first compound 8 µM): 0.448
